# Assay: pKa of the conjugate acid of the enolate anion (acid/base titration or UV absorption method)
# Assay type: physicochemical
# Conditions: mixed solvent of THF/water=3/2
# Excerpt: The conjugate acid of the enolate anion in the formula (1) has a pKa value of 3.0-6.0. If the pKa value is less than 3.0, ultrahigh contrast images cannot be obtained. On the other hand, if it exceeds 6.0, stability before light exposure and development is degraded. The pKa value defined herein is a value obtained by the acid/base titration method or the UV absorption method in a mixed solvent of THF/water=3/2.
row,pKa,Compound
1,3.8,O=C1/C(=C/O)N=C(c2cc(C(F)(F)F)cc(C(F)(F)F)c2)N1c1ccc(Cl)cc1 [Compound A-6]
2,6.3,CCCCCCCCCCCCCCCc1cccc(CCCN2C(=O)/C(=C\O)c3ccccc32)c1 [Compound R-2]
3,3.1,CCCCCCCCCCCCNc1ccc(N2C(=O)/C(=C\O)N=C2C(F)(F)F)cc1 [Compound A-18]
4,≤ 2.9,CCCCCCCCCCCCc1cc(CCCCCCCCCCCC)cc(N2N=C/C(=C/O)C2=O)c1 [Compound R-1]

# From patent publication US6746835B2, “Thermally processed image recording material” (Fuji Photo Film Co., Ltd., priority 2001, dated 2004)
